# Results: ChEMBL document CHEMBL1201862, “PubChem BioAssay data set” (2004)
#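 Growth conditions: 96-well plates. Treatment: test compound, 48 hours, 5 concentrations. Analysis: linear interpolation between bracketing concentrations; unreached endpoints set to highest concentration. Here, GI50 denotes the concentration required for 50% inhibition of growth.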 The source made the active and inactive calls. Rule as the data show it: active = GI50 up to about 1.1 µM and inactive = higher.
# Assays:
# Test in all cases: growth of human tumour cells (NCI), 48 h
# SF-539 = test system: SF-539
# SK-MEL-5 = test system: SK-MEL-5
# OVCAR-4 = test system: OVCAR-4
# RXF 393 = test system: RXF 393
# NCI-H522 = test system: NCI-H522
# UO-31 = test system: UO-31
# SK-MEL-28 = test system: SK-MEL-28
# U-251 = test system: U-251
# MOLT-4 = test system: MOLT-4
# SR = test system: SR
# SK-OV-3 = test system: SK-OV-3
# NCI-H23 = test system: NCI-H23
# SW-620 = test system: SW-620
# HOP-92 = test system: HOP-92
# M14 = test system: M14
# RPMI-8226 = test system: RPMI-8226
SMILES,GI50 (SF-539),GI50 (SK-MEL-5),GI50 (OVCAR-4),GI50 (RXF 393),GI50 (NCI-H522),GI50 (UO-31),GI50 (SK-MEL-28),GI50 (U-251),GI50 (MOLT-4),GI50 (SR),GI50 (SK-OV-3),GI50 (NCI-H23),GI50 (SW-620),GI50 (HOP-92),GI50 (M14),GI50 (RPMI-8226)
COc1ccc(CC2=NCCc3cc(OC)c(OC)cc32)cc1Br,24.7 µM (inactive),12.5 µM (inactive),15.2 µM (inactive),21.1 µM (inactive),12 µM (inactive),16.8 µM (inactive),19.8 µM (inactive),18.1 µM (inactive),6.18 µM (inactive),11.9 µM (inactive),16.9 µM (inactive),8.69 µM (inactive),7.52 µM (inactive),0.644 µM (active),,
CCCN(CCC)CCc1cc(C(C)=O)n(S(=O)(=O)c2ccc(C)cc2)c1,> 100 µM (inactive),41.4 µM (inactive),> 100 µM (inactive),,> 100 µM (inactive),83.2 µM (inactive),> 100 µM (inactive),> 100 µM (inactive),> 100 µM (inactive),> 100 µM (inactive),> 100 µM (inactive),> 100 µM (inactive),> 100 µM (inactive),> 100 µM (inactive),20.3 µM (inactive),> 100 µM (inactive)
CCC1(C)NN=c2s/c(=C/c3ccc(OC)cc3)c(=O)n2N1 (stereo unspecified),90.6 µM (inactive),> 100 µM (inactive),35.7 µM (inactive),49.4 µM (inactive),> 100 µM (inactive),> 100 µM (inactive),> 100 µM (inactive),> 100 µM (inactive),> 100 µM (inactive),> 100 µM (inactive),> 100 µM (inactive),> 100 µM (inactive),> 100 µM (inactive),17.6 µM (inactive),> 100 µM (inactive),
COc1c(C(C)C)cc2c3c1OC(=O)[C@@]31CCCC(C)(C)C1CC2 (stereo partly specified),14 µM (inactive),11.2 µM (inactive),,17.3 µM (inactive),9.18 µM (inactive),11.7 µM (inactive),27.4 µM (inactive),20 µM (inactive),25.1 µM (inactive),16.9 µM (inactive),23.8 µM (inactive),20 µM (inactive),26.4 µM (inactive),,33.5 µM (inactive),18.9 µM (inactive)
N#CC(N)(C(=O)CCC(=O)Nc1cccc(Cl)c1)c1ccc(Cl)cc1 (stereo unspecified),> 100 µM (inactive),> 100 µM (inactive),> 100 µM (inactive),,> 100 µM (inactive),> 100 µM (inactive),> 100 µM (inactive),> 100 µM (inactive),> 100 µM (inactive),> 100 µM (inactive),> 100 µM (inactive),> 100 µM (inactive),> 100 µM (inactive),> 100 µM (inactive),> 100 µM (inactive),> 100 µM (inactive)
O=c1[nH]c2ccc([N+](=O)[O-])cc2nc1/C(=N/Nc1ccccc1)C(O)c1ccco1 (stereo unspecified),> 100 µM (inactive),25.8 µM (inactive),66.2 µM (inactive),52.8 µM (inactive),6.44 µM (inactive),44.2 µM (inactive),> 100 µM (inactive),> 100 µM (inactive),38.5 µM (inactive),66.2 µM (inactive),> 100 µM (inactive),65.3 µM (inactive),39.4 µM (inactive),> 100 µM (inactive),> 100 µM (inactive),34.7 µM (inactive)
Cn1c(=O)nc2n(-c3ccc(Cl)c(C(F)(F)F)c3)c3ccccc3nc-2c1=O,29 µM (inactive),13.5 µM (inactive),22.2 µM (inactive),55.7 µM (inactive),25.1 µM (inactive),> 77.4 µM (inactive),65 µM (inactive),40.6 µM (inactive),36.7 µM (inactive),,> 100 µM (inactive),29.6 µM (inactive),22.9 µM (inactive),40.8 µM (inactive),26.1 µM (inactive),33.2 µM (inactive)
CCC12CCCC(=O)N1C(CO)C(c1ccccc1)O2 (stereo unspecified),> 100 µM (inactive),> 100 µM (inactive),> 100 µM (inactive),> 100 µM (inactive),,,> 100 µM (inactive),> 100 µM (inactive),,> 100 µM (inactive),,> 100 µM (inactive),> 100 µM (inactive),> 100 µM (inactive),,> 100 µM (inactive)
CC(=O)Nc1ccc(C2CC(c3ccc([N+](=O)[O-])cc3)=Nc3ccccc3[S+]2[O-])cc1 (stereo unspecified),24.6 µM (inactive),19.6 µM (inactive),18.9 µM (inactive),17.4 µM (inactive),17.3 µM (inactive),16.7 µM (inactive),19.6 µM (inactive),,12.6 µM (inactive),,27.4 µM (inactive),21.5 µM (inactive),20 µM (inactive),,27.9 µM (inactive),4.36 µM (inactive)
CCOc1ccc2c(c1)[n+]([O-])c(-c1ccccc1)c(N)[n+]2[O-],51.3 µM (inactive),24.3 µM (inactive),> 100 µM (inactive),,16.8 µM (inactive),96.4 µM (inactive),33.1 µM (inactive),47.6 µM (inactive),46.8 µM (inactive),,> 100 µM (inactive),29.9 µM (inactive),> 100 µM (inactive),,81.5 µM (inactive),> 100 µM (inactive)
